Test results from US3993749A, “Rapamycin and process of preparation” (Ayerst McKenna and Harrison Ltd., priority 1975, dated 1976).
Values after ≈ are worked out from the molar mass of the structure shown.

Tests used:
[1] = tested on: C. albicans ATCC 11651; assay: protection studies in mice infected with C. albicans; type: in vivo
Description: In protection studies, mice were infected by intravenous injection of C. albicans ATCC 11651. […] At this dose 50% of the mice were protected.

[2] = tested on: M. gypseum; assay: minimum inhibitory concentration of rapamycin; type: cell-based, Microsporum gypseum; details: Nannizzia gypsea
Description: (§1) The antifungal activity of this compound is demonstrable in standard tests used for this purpose, for example, in the tests described in "Antiseptics, Disinfectants, Fungicides and Sterilization", G. F. Reddish, Ed., 2nd ed., Lea and Febiger, Philadelphia, 1957 or by D. C. Grove and W. A. Randall in "Assay Methods of Antibiotics", Med. Encycl. Inc., New York 1955.
(§2) h. the minimum inhibitory concentration of rapamycin against various microorganism is listed below: […]

[3] = solubility; type: physicochemical
[4] = LD50 in mice; details: mouse, in vivo
[5] = irritation, intradermal injection into a rabbit's ear; type: in vivo; details: 1% suspension (0.2 ml) in water containing […] polysorbate 80, intradermal
Method: (§3) A 1% suspension (0.2 ml) of rapamycin in water containing 1.5% polysorbate 80 (Tween 80), when injected intradermally into a rabbit's ear caused no irritation. Similarly, two drops of a 0.5% suspension applied to a rabbit's eye caused no irritation.

[6] = irritation, drops applied to a rabbit's eye; type: in vivo; details: two drops of a 0.5% suspension
Method: as §3

[7] = tested on: C. intermedia; assay: minimum inhibitory concentration of rapamycin; type: cell-based; details: Sungouiella intermedia
Description: as §1, §2

[8] = tested on: C. morrera; assay: minimum inhibitory concentration of rapamycin; type: cell-based
Description: as §1, §2

[9] = tested on: C. parapsilosis; assay: minimum inhibitory concentration of rapamycin; type: cell-based; details: Lodderomyces parapsilosis
Description: as §1, §2

[10] = tested on: C. tropicalis; assay: minimum inhibitory concentration of rapamycin; type: cell-based; details: Candida tropicalis
Description: as §1, §2

[11] = tested on: C. stellatoidea; assay: minimum inhibitory concentration of rapamycin; type: cell-based; details: Candida albicans
Description: as §1, §2

[12] = tested on: C. lipolytica; assay: minimum inhibitory concentration of rapamycin; type: cell-based; details: Yarrowia lipolytica
Description: as §1, §2

[13] = tested on: T. mentagrophytes; assay: minimum inhibitory concentration of rapamycin; type: cell-based; details: Trichophyton mentagrophytes, read-out: minimum inhibitory concentration
Description: as §1, §2

[14] = tested on: C. pseudtropicalis; assay: minimum inhibitory concentration of rapamycin; type: cell-based; details: read-out: minimum inhibitory concentration
Description: as §1, §2

[15] = tested on: C. catenulata; assay: minimum inhibitory concentration of rapamycin; type: cell-based
Description: as §1, §2

[16] = tested on: Candida albicans (5 strains); assay: minimum inhibitory concentration of rapamycin; type: cell-based; details: against Candida albicans
Description: as §1, §2

[17] = tested on: C. albicans; details: prior art; cited from earlier work
[18] = tested on: fungi; details: prior art; cited from earlier work
[19] = prior art, route not given; cited from earlier work
[20] = tested on: bacteria; details: prior art; cited from earlier work
[21] = tested on: tumor; details: prior art; cited from earlier work
[22] = tested on: gram positive organisms; details: prior art; cited from earlier work
[23] = tested on: Candida strains; details: prior art; cited from earlier work

CO[C@H]1C[C@@H]2CC[C@@H](C)[C@@](O)(O2)C(=O)C(=O)N2CCCC[C@H]2C(=O)O[C@H]([C@H](C)C[C@@H]2CC[C@@H](O)[C@H](OC)C2)CC(=O)[C@H](C)/C=C(\C)[C@@H](O)[C@@H](OC)C(=O)[C@H](C)C[C@H](C)/C=C/C=C/C=C/1C [Rapamycin, rapamycin]
mice survived ([1]; 10 mg/kg orally): 4 out of 10 | mice protected ([1]; 10 mg/kg s.c. at 1, 4 and 24 hours after i.v. infection): 50% | protection ([1]; 25 mg/kg orally): complete protection | protection ([1]; 25 mg/kg s.c.): complete protection | MIC [2]: 12.5 µg/mL (≈ 13.7 µM) | solubility ([3]; in ether, chloroform, acetone, methanol and dimethylformamide): soluble | solubility ([3]; in hexane and petroleum ether): very sparingly soluble | solubility ([3]; in water): substantially insoluble | LD50 ([4]; ip): 597 ± 28.1 mg/kg | LD50 ([4]; po): > 2500 mg/kg | irritation [5]: no irritation | irritation [6]: no irritation | MIC [7]: < 0.1 µg/mL | MIC [8]: < 0.1 µg/mL | MIC [9]: < 0.1 µg/mL | MIC [10]: 0.1 µg/mL (≈ 0.109 µM) | MIC [11]: < 0.1 µg/mL | MIC [12]: 2.5 µg/mL (≈ 2.73 µM) | MIC [13]: > 1000 µg/mL | MIC [14]: > 5 µg/mL | MIC [15]: < 0.1 µg/mL | inhibitory activity [16]: especially pronounced

Mycotrienin
MIC against C. albicans [17]: 5 µg/mL | antifungal activity [18]: low antifungal activity | LD50 in mice [19]: 15 mg/kg

Proticin
antifungal activity [18]: without any antifungal activity | antibacterial activity [20]: antibacterial

Resistaphylin
antifungal activity [18]: without any antifungal activity | antibacterial activity [20]: antibacterial

Trienine
antitumor activity [21]: antitumor activity | activity against gram positive organisms [22]: marked activity | activity against Candida strains [23]: only marginal activity
